*1 amine or outer side, *2 acyl side, *3 side chain or, on linkers, in order; H or OH if unused. Where a SMILES comes first, the peptide text is derived from it. [ ]: non-standard residue; d: D form. X1 = O=C1OC(O)c2cc(C[C@H](N[*:1])C(=O)[*:2])ccc21
Target: T1, human src SH2 domain (Homo sapiens, UniProt P12931)
T1 construct: made in house; host or cells: E. coli strain AR120 (vector pEA1KnRBS3)
Assay: ELISA-based binding assay of human src SH2 domain fusion protein and biotinylated pY peptide
Details: DET1-DET2-spacer-ek-src SH2 fusion protein; 0.1 uM biotinylated pY peptide; 3 hr at 4° C.; read-out: Activity at cloned human Src SH2 domain (IC50)
Experimental: The inhibitory activity of compounds at the human src SH2 domain was determined in vitro using the human src SH2 domain expressed as fusion proteins in E. coli.
The fusion protein containing the human SH2 domain was expressed as the general sequence: DET1-DET2-spacer-ek-SH2, where DET1, DET2, spacer, ek and SH2 are as described below. DET1 (“defined epitope tag 1”) (SEQ ID NO: 1) is an 11 amino acid sequence found in the Human Immunodeficiency Virus Type 1 (HIV-1) envelope protein gp120 (or gp160). Monoclonal antibodies to various epitopes of HIV-1 gp120 (or gp160) are known in the art, see, for example U.S. Pat. No. 5,166,050. One preferred example is monoclonal antibody 178.1 (see, e.g., Thiriart et al., J. Immunol., 143:1832-1836 (1989)), which was prepared by immunization of mice with a yeast-expressed HIV-1 gp160 molecule from strain BH10 (Ratner et al., Nature, 313:277-284 (1985)). This tag was used for detection of expression (by Western blot), for purification of the protein (by affinity chromatography), and for configuring assays in which the fusion protein was captured or immobilized using the 178.1 antibody. DET2 is a hexa-histidine sequence tag (SEQ ID NO: 2) which binds to nickel-containing resins and was used for purification purposes. Spacer (SEQ ID NO: 3) was utilized to design a BamH1 restriction site at the indicated position of the construct. […]

T1 sequence (P12931 151-248 limits assumed): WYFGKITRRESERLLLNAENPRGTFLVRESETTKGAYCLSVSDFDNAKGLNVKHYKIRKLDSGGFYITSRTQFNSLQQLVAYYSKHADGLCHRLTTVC

IC50: 250 nM
SMILES: CC[C@H](C)[C@H](NC(=O)[C@H](CCC(=O)O)NC(=O)[C@H](CCC(=O)O)NC(=O)[C@H](Cc1ccc2c(c1)C(O)OC2=O)NC(C)=O)C(=O)N[C@@H](CCC(=O)O)C(N)=O (stereo partly drawn) [Compound 1, (S)-alpha-(acetylamino)-1,3-dihydro-3-hydroxy-1-oxo-5-isobenzofuranpropanamido-glutamate-glutamate-isoleucine-glutamate-amine] (Ac-[X1]EEIE-NH2)

Reference: US20030096760A1, “Method of antagonizing the human SRC SH2 domain” (SmithKlineBeecham Corporation, priority 1997, published 2003)
